Measurements published in US20190308988A1, “OPIOID RECEPTOR ANTAGONIST PRODRUGS” (Nirsum Laboratories, Inc., priority 2017, published 2019).
Converted amounts (≈) assume the structure as drawn.

Key:
[1] = Solubility determination in oil (Table 10); conditions: thermodynamic from solid; for solubility thermodynamic: water, Equilibrium solubility: Water
Protocol: A known amount of test substance (˜40 mg) was weighed into the vial, 100 μL of oil was added and heated to 60° C. and then system was slurried to reach equilibrium. […] Extra oil was added into the vial once compound precipitated out and then the system was re-equilibrated at 1000 rpm at room temperature (25° C.). Final concentration was determined by HPLC method as described below in Table 6a and 6b.

[2] = Dog pharmacokinetic studies, deep intramuscular administration; type: in vivo, Beagle dogs; conditions: Beagle, dog, plasma, im, Sesame oil + 1% Benzyl Alcohol; for AUC(0-inf): read-out: AUC0-inf (ng · h/mL) prodrug; for half-life: read-out: Half-life t1/2 (hour) prodrug (converted)
Protocol: The purpose of this study is to determine the pharmacokinetics of test compounds in plasma, following deep intramuscular administration to Beagle dogs (n=3, unless otherwise specified).
(§1) The dose formulation (concentration—400 mg base equivalents/ml in sesame oil+1% benzyl alcohol, unless otherwise specified) was administered via deep intramuscularly (unless otherwise specified). The injection vehicle was also dosed via deep intramuscular route (unless otherwise specified) on contralateral site of each animal at study initiation. The animals were sedated with Propofol at 6 mg/kg via IV administration. Following sedation hair was carefully removed from around the injection site and the area gently cleaned. Care will be taken to avoid irritating skin during shaving and cleaning the injection site. Then dogs will be dosed with deep IM administration. At least 2.5 cm depth from the surface into the central aspect of the quadriceps or biceps femoris muscle, by angling the needle toward the femur. If the needle hits the femur, simply draws back slightly and then inject. The dose volume will be determined by the animals' body weight collected on the morning of dosing day. For repeated administration, the injection sites may be rotated to minimize tissue injury.
Blood samples were collected from a peripheral vessel from restrained, non-sedated animals per sampling time point.
Approximately 0.8 mL blood will be collected at each time point.
(§2) Each collected blood sample was centrifuged for 4 minutes at 4° C. and 10000 rpm for plasma collection. Plasma was collected and transferred into a pre-labeled PP tube in dry ice at each time point and precipitated immediately using ACN at a ratio of 1:4 (plasma:ACN).
(§3) LC-MS/MS methods for the quantitative determination of test compound in biological matrix were developed. […] The sample analysis was performed concurrently with a set of calibration standards and two sets of QC samples using the LC-MS/MS method.
(§4) Plasma concentration versus time data was analyzed by non-compartmental approaches using the Phoenix WinNonlin 6.3 software program. Cmax, Tmax, T1/2, AUC(0-t), AUC(0-inf), MRT(0-t), MRT(0-inf) and graphs of plasma concentration versus time profile were prepared.

[3] = Rat pharmacokinetic studies, intramuscular administration; type: in vivo, male Sprague Dawley Rats; conditions: male, Sprague Dawley, rat, plasma, im, Sesame oil + 1% Benzyl Alcohol; for AUC(0-inf): read-out: AUC0-inf (ng · h/mL) prodrug; for half-life: read-out: Half-life t1/2 (hour) prodrug (converted)
Protocol: The purpose of this study is to determine the pharmacokinetics of test compounds in plasma, following intramuscular administration to male Sprague Dawley Rats (n=3, unless otherwise specified).
The dose formulation of 400 mg base equivalents/ml in sesame oil+1% benzyl alcohol (unless otherwise specified) was administered by intramuscular injection. The dose volume was determined by the animals' body weight determined on the morning of dosing day.
as §2, with “(plasma:ACN). Centrifuged again (10 minutes, 12000 rpm) and obtain the supernatant.” for “(plasma:ACN).”
as §3, §4

[4] = Liver S9 fraction stability, monkey; type: in vitro ADME, cynomolgus monkey; conditions: monkey liver S9 1.0 mg/ml, 2 μM, 37° C.
Protocol: (§5) Liver S9 fraction stability determination of the test compounds in dog, cynomolgus monkey and human is performed using HPLC-MS. Test compound (2 μM, 0.1% DMSO, 1% Methanol final concentration) was assessed for stability in a 50 μl phosphate buffer containing 1.0 mg/ml S9 protein from each of the three species and 5 mM D-saccharic acid-1, 4-lactone. Samples were incubated at 37° C. for 60 minutes and the % compound remaining was assessed.

[5] = Liver S9 fraction stability, human; type: in vitro ADME; conditions: human liver S9 1.0 mg/ml, 2 μM, 37° C.
Protocol: as §5

[6] = Liver S9 fraction stability, dog; type: in vitro ADME; conditions: dog liver S9 1.0 mg/ml, 2 μM, 37° C.
Protocol: as §5

[7] = Polymorph screening of solid state drug substances (Table 23); type: physicochemical; conditions: stirred 50 °C 72 hours; for Dry method and appearance: dried solid
[8] = in vivo; cited from earlier work
[9] = Plasma stability, human plasma (HPLC-MS); type: in vitro ADME; conditions: 2 μM, 37° C., 120 min
Protocol: Plasma Stability Determination of the Test Compounds in Rat, Dog, Cynomolgus Monkey and human plasma is performed using HPLC-MS. For rat, incubations are carried out in 96-well polypropylene plates in 5 aliquots of 70 μL each (one for each time point). […] Five time points are analyzed (0, 15, 120, 480 and 1440 min). […] All incubations are performed in duplicates. The samples are analyzed by HPLC-MS. The percentage of parent compound remaining after incubation in plasma is determined.

[10] = Dog body weights and clinical observation (Tables 66-86); type: in vivo, Beagle dogs; conditions: dog D1002, 48 mg/kg
Protocol: Weight monitoring was done every week.
as §1

[11] = 25 °C, oil or lipid, Approximate Solubility in Excipient: Cottonseed oil, Heating Temp. 60 °C, Obs. Temp. 25 °C
[12] = 25 °C, oil or lipid, Approximate Solubility in Excipient: Sesame oil, Heating Temp. 60 °C, Obs. Temp. 25 °C
[13] = 40 °C, oil or lipid, Approximate Solubility in Excipient: Cottonseed oil, Heating Temp. 60 °C, Obs. Temp. 40 °C
[14] = 40 °C, oil or lipid, Approximate Solubility in Excipient: Sesame oil, Heating Temp. 60 °C, Obs. Temp. 40 °C

C=C1CC[C@@]2(O)C3Cc4ccc(OC(=O)CCCCCCCCCCCCCCC)c5c4[C@@]2(CCN3CC2CC2)[C@H]1O5 [Compound 56, (4aS,7aS,12bS)-3-(cyclopropylmethyl)-4a-hydroxy-7-methylene-2,3,4,4a,5,6,7,7a-octahydro-1H-4,12-methanobenzofuro[3,2-e]isoquinolin-9-yl palmitate]
solubility at 24 h [1, 11]: < 50 mg/mL | solubility at 24 h [1, 12]: < 50 mg/mL | solubility [1, 13]: 25 to 50 mg/mL (≈ 43.3 to 86.5 mM) | solubility [1, 14]: 25 to 50 mg/mL (≈ 43.3 to 86.5 mM) | solubility ([1]; 40 °C, organic solvent or mixture, Approximate Solubility in Excipient: Ethanol, Heating Temp. 60 °C, Obs. Temp. 40 °C): < 40.4 mg/mL | solubility thermodynamic ([1]; 40 °C, Heating Temp. 60 °C, Obs. Temp. 40 °C): 0.0679 mg/mL (≈ 0.118 mM) | melting point: 48.95 °C

C=C1CC[C@@]2(O)C3Cc4ccc(OC(=O)CCCCCCC/C=C/CCCCCCCC)c5c4[C@@]2(CCN3CC2CC2)[C@H]1O5 [Compound 15, (4aS,7aS,12bS)-3-(cyclopropylmethyl)-4a-hydroxy-7-methylene-2,3,4,4a,5,6,7,7a-octahydro-1H-4,12-methanobenzofuro[3,2-e]isoquinolin-9-yl (E)-octadec-9-enoate]
solubility at 24 h [1, 11]: > 403 mg/mL | solubility at 24 h [1, 12]: > 396 mg/mL | solubility ([1]; 40 °C, oil or lipid, Approximate Solubility in Excipient: Cottonseed oil, Heating Temp. 40 °C, Obs. Temp. 40 °C): < 51 mg/mL | solubility [1, 13]: > 401 mg/mL | solubility ([1]; 40 °C, oil or lipid, Approximate Solubility in Excipient: Sesame oil, Heating Temp. 40 °C, Obs. Temp. 40 °C): < 52 mg/mL | solubility [1, 14]: > 404 mg/mL | solubility ([1]; 40 °C, organic solvent or mixture, Approximate Solubility in Excipient: Ethanol, Heating Temp. 40 °C, Obs. Temp. 40 °C): < 20 mg/mL | solubility thermodynamic ([1]; 40 °C, Heating Temp. 40 °C, Obs. Temp. 40 °C): < 0.0002 mg/mL | AUC(0-inf) ([2]; 30 mg/kg, IM 30 mg/kg): 521 ng·h/mL | half-life ([2]; 30 mg/kg, IM 30 mg/kg): 134 h | AUC(0-inf) ([2]; 48 mg/kg, IM 48 mg/kg): 1140 ng·h/mL | half-life ([2]; 48 mg/kg, IM 48 mg/kg): 518 h | AUC(0-inf) ([2]; 96 mg/kg, IM 96 mg/kg): 1350 ng·h/mL | half-life ([2]; 96 mg/kg, IM 96 mg/kg): 162 h | AUC(0-inf) ([3]; 80 mg/kg): 679 ng·h/mL | half-life ([3]; 80 mg/kg): 1550 h | AUC(0-inf) ([3]; 123 mg/kg): 2570 ng·h/mL | half-life ([3]; 123 mg/kg): 884 h | AUC(0-inf) ([3]; 165 mg/kg): 2790 ng·h/mL | half-life ([3]; 165 mg/kg): 500 h | % remaining at 60 minutes, Monkey [4]: 76.7% | % remaining at 60 minutes, Human [5]: 59.8% | % remaining at 60 minutes, Dog [6]: 80.9%

C=C1CC[C@@]2(O)C3Cc4ccc(OC(=O)NC(C)(C)C)c5c4[C@@]2(CCN3CC2CC2)[C@H]1O5 [Compound 40, (4aS,7aS,12bS)-3-(cyclopropylmethyl)-4a-hydroxy-7-methylene-2,3,4,4a,5,6,7,7a-octahydro-1H-4,12-methanobenzofuro[3,2-e]isoquinolin-9-yl tert-butylcarbamate]
XRPD results (Dried) ([7]; Acetone): Amorphous | Dry method and appearance ([7]; Acetone): Evaporation/white powder | XRPD results (Dried) ([7]; EtOAc): Pattern A | Dry method and appearance ([7]; EtOAc): Evaporation/white powder | XRPD results (Dried) ([7]; Heptane): Pattern A | Dry method and appearance ([7]; Heptane): Centrifugation/white powder | XRPD results (Dried) ([7]; Isopropanol): Amorphous | Dry method and appearance ([7]; Isopropanol): Evaporation/oil | XRPD results (Dried) ([7]; MTBE): Amorphous | Dry method and appearance ([7]; MTBE): Evaporation/white powder | melting point: 107.6 °C

Oc1ccc2c3c1O[C@H]1[C@H](O)CC[C@@]4(O)[C@@H](C2)N(CC2CC2)CC[C@]314 [6-β-naltrexol]
mean elimination half-life [8]: thirteen

CCCCCCCCCCCC(=O)OCN1C(=O)CCc2ccc(OCCCCN3CCN(c4cccc(Cl)c4Cl)CC3)cc21 [Aripiprazole lauroxil, reference compound]
% remaining at 60 minutes, Monkey [4]: 56.6% | % remaining at 60 minutes, Human [5]: 47.8% | % remaining at time point in minutes, 120 min [9]: 80% | % remaining at 60 minutes, Dog [6]: 66.1%

C=C1CC[C@@]2(O)C3Cc4ccc(OCOC(=O)OCCCCCCCCCCC)c5c4[C@@]2(CCN3CC2CC2)[C@H]1O5 [Compound 5, (((4aS,7aS,12bS)-3-(cyclopropylmethyl)-4a-hydroxy-7-methylene-2,3,4,4a,5,6,7,7a-octahydro-1H-4,12-methanobenzofuro[3,2-e]isoquinolin-9-yl)oxy)methyl undecyl carbonate]
solubility ([1]; 25 °C, oil or lipid, Solubility by volumetric flask method: Cottonseed oil, volumetric flask method, Heating Temp. 60 °C, Obs. Temp. 25 °C): > 402 mg/mL | solubility ([1]; 25 °C, oil or lipid, Solubility by volumetric flask method: Sesame oil, volumetric flask method, Heating Temp. 60 °C, Obs. Temp. 25 °C): > 401 mg/mL | solubility thermodynamic ([1]; 40 °C, section 'Solubility by volumetric flask method', Heating Temp. 40 °C, Obs. Temp. 40 °C): < 0.001 mg/mL | AUC(0-inf) ([2]; 48 mg/kg, IM 48 mg/kg): 3870 ng·h/mL | half-life ([2]; 48 mg/kg, IM 48 mg/kg): 70.9 h | BT ([10]; 456 hr): 3 cm * 3 cm/BT: 38.9 °C | BT ([10]; 504 hr): 3 cm * 3 cm/BT: 38.7 °C | BT ([10]; […]): 3 cm * 4 cm/BT: 39.4 °C
